Data on two compounds can be found in ChEMBL document CHEMBL5360656, “Structure-Based Design of Transport-Specific Multitargeted One-Carbon Metabolism Inhibitors in Cytosol and Mitochondria” (J Med Chem, 2023).

Molecules are shown by their SMILES. Active and inactive are the calls of the source. No cut-off for these calls is given here.

Assay [1] deals with KB. Put plainly: Antitumor activity against human KB cells assessed as inhibition of cell growth measured upto 96 hrs in presence of adenosine by Cell titer blue assay. In kind it is functional, cell-based.
Assay [2] concerns CHO. Put plainly: cells. To be noted: Cricetulus griseus, 96 h.

For the compound `Nc1nc2[nH]c(CCCc3ccc(C(=O)N[C@@H](CCC(=O)O)C(=O)O)s3)cc2c(=O)[nH]1`, in assay [1], the result was inactive.

For `Nc1nc2[nH]cc(CCc3ccc(C(=O)N[C@@H](CCC(=O)O)C(=O)O)cc3)c2c(=O)[nH]1` [PEMETREXED], in assay [2], half-maximal inhibition (IC50) required 60 nM.
